Among the test systems are BT-549 breast; DU-145 prostate; HCC-2998 colon; HOP-92 NSCLC; IGROV1 ovarian; KM12 colon; NCI/ADR-RES ovarian; OVCAR-8 ovarian; SF-268 CNS; UO-31 renal.
Test in all cases: NCI-60 cell line screen, 48 h

Each structure is given as a SMILES string.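 96-well plates; 48 h exposure; 5 concentrations. Endpoints by linear interpolation between flanking doses. Not reached: highest tested concentration assigned. TGI is the concentration that stops growth completely.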

In the case of `CCOC(=O)/C=C(\C(=O)OCC)n1ccc(N)nc1=O`, the TGI with BT-549 breast, in the assay with DU-145 prostate, with HCC-2998 colon, with HOP-92 NSCLC, in the assay with IGROV1 ovarian and with KM12 colon was above 100 µM throughout. The TGI in the assay with NCI/ADR-RES ovarian, with OVCAR-8 ovarian, with SF-268 CNS and in the assay on UO-31 renal was above 100 µM in each case.
Regarding `O=C(CCCCCCCCC(=O)N1C(=O)CC(=O)N(c2cccc(Cl)c2)C1=S)N1C(=O)CC(=O)N(c2cccc(Cl)c2)C1=S`, the TGI in the assay on BT-549 breast is above 100 µM; in the assay with DU-145 prostate, above 100 µM; with HCC-2998 colon, above 100 µM; in the assay on HOP-92 NSCLC, 51.1 µM; in the assay with KM12 colon, above 100 µM; in the assay with NCI/ADR-RES ovarian it was 96.9 µM. Further, the TGI in the assay on OVCAR-8 ovarian, in the assay on SF-268 CNS and in the assay on UO-31 renal was above 100 µM throughout.
For `COc1cc(/C=C2\N=C(c3ccccc3)N(c3nc4c(OC)ccc(OC)c4s3)C2=O)cc(OC)c1OC`, the TGI in the assay with BT-549 breast, in the assay on DU-145 prostate, in the assay with HCC-2998 colon, in the assay with HOP-92 NSCLC, in the assay on IGROV1 ovarian and in the assay with KM12 colon was above 100 µM each time. For the same molecule, the TGI in the assay with NCI/ADR-RES ovarian, with OVCAR-8 ovarian, in the assay on SF-268 CNS and with UO-31 renal was above 100 µM each time.
Regarding `CC[C@H](C)[C@H]1NC(=O)[C@@H](NC(=O)[C@@H](CC(C)C)N(C)CC2CCCN2C(=O)C(C)=O)[C@@H](C)OC(=O)[C@H](Cc2ccc(OC)cc2)N(C)C(=O)C2CCCN2C(=O)[C@H](CC(C)C)NC(=O)[C@@H](C)C(=O)[C@H](C(C)C)OC(=O)C[C@@H]1O` (some centres undefined), the TGI came to 0.0135 µM in the assay with BT-549 breast; 0.0032 µM with DU-145 prostate; 0.00958 µM in the assay with HCC-2998 colon; 0.0292 µM in the assay with HOP-92 NSCLC; 0.016 µM in the assay with IGROV1 ovarian; 0.0105 µM in the assay on KM12 colon. For the same molecule, the TGI stood at 0.231 µM in the assay with NCI/ADR-RES ovarian, 0.0474 µM with OVCAR-8 ovarian, 0.0257 µM in the assay with SF-268 CNS and 0.0862 µM in the assay on UO-31 renal.
With `COc1cc(CC2c3cc(OC)c(OC)cc3CCN2C)c(Oc2cc3c(cc2OC)-c2c(O)c(OC)cc4c2C(C3)N(C)CC4)cc1OC` (centres undefined), the TGI in the assay with BT-549 breast is 32.4 µM; in the assay on DU-145 prostate, above 100 µM; in the assay on HCC-2998 colon, 31 µM; in the assay with HOP-92 NSCLC, 32.6 µM; with IGROV1 ovarian, 45.1 µM; in the assay on KM12 colon, 31.3 µM. Besides, the TGI worked out at 43.9 µM in the assay on NCI/ADR-RES ovarian, 44.5 µM in the assay with OVCAR-8 ovarian, 46 µM with SF-268 CNS and 36.1 µM in the assay with UO-31 renal.
Turning to `O=c1[nH]nc(-c2ccccc2)n1/N=C/c1c(O)ccc2ccccc12`, the TGI with BT-549 breast, in the assay with DU-145 prostate, with HCC-2998 colon, with HOP-92 NSCLC, with IGROV1 ovarian and with KM12 colon was above 100 µM each time. Further, the TGI in the assay with NCI/ADR-RES ovarian, in the assay on OVCAR-8 ovarian, in the assay with SF-268 CNS and in the assay with UO-31 renal was above 100 µM throughout.
With `O=S1(=O)c2ccccc2C(=NO)c2ccccc21`, the TGI in the assay on BT-549 breast, in the assay with DU-145 prostate, in the assay with HCC-2998 colon, with HOP-92 NSCLC, with IGROV1 ovarian and with KM12 colon was above 100 µM throughout. The TGI in the assay on NCI/ADR-RES ovarian, in the assay on OVCAR-8 ovarian, with SF-268 CNS and in the assay with UO-31 renal was above 100 µM each time.
Consider `N#Cc1c(N2CCCC2)ncn(Cc2ccccc2)c1=O`, for which the TGI in the assay with BT-549 breast, in the assay on DU-145 prostate, in the assay on HCC-2998 colon, with HOP-92 NSCLC, in the assay with IGROV1 ovarian and in the assay with KM12 colon was above 100 µM in each case. In addition, the TGI in the assay with NCI/ADR-RES ovarian, with OVCAR-8 ovarian, in the assay on SF-268 CNS and with UO-31 renal was above 100 µM each time.
Take `Nc1ccccc1N/C=C\C(=O)C(Cl)(Cl)Cl`: the TGI with BT-549 breast is 58.6 µM; in the assay with DU-145 prostate it was 75.1 µM; in the assay on HCC-2998 colon, 31.7 µM; with HOP-92 NSCLC, 47.8 µM; in the assay with IGROV1 ovarian, 40.7 µM; in the assay on KM12 colon, 29.4 µM. Besides, the TGI in the assay with NCI/ADR-RES ovarian is above 100 µM; with OVCAR-8 ovarian, above 100 µM; in the assay with SF-268 CNS, above 100 µM; in the assay with UO-31 renal, 62.6 µM.
Take `CCCNC(C#N)c1ccc(C(C#N)NCCC)cc1` (centres undefined): the TGI with BT-549 breast, in the assay with DU-145 prostate, in the assay on HCC-2998 colon, in the assay with HOP-92 NSCLC, in the assay with IGROV1 ovarian and with KM12 colon was above 100 µM each time. The TGI in the assay on NCI/ADR-RES ovarian, in the assay on OVCAR-8 ovarian, in the assay on SF-268 CNS and in the assay on UO-31 renal was above 100 µM each time.
For `COC(OC)C1OC(CO)C(n2ccc(N)nc2=O)C1O` (centres undefined), the TGI with BT-549 breast, with DU-145 prostate, with HCC-2998 colon, in the assay on HOP-92 NSCLC, with IGROV1 ovarian and in the assay with KM12 colon was above 100 µM each time. Also, the TGI in the assay with NCI/ADR-RES ovarian, with OVCAR-8 ovarian, in the assay on SF-268 CNS and in the assay with UO-31 renal was above 100 µM in each case.
Consider `CN(NC(=O)CCCl)C1=NCCCCN1`, for which the TGI in the assay on BT-549 breast, with DU-145 prostate, in the assay on HCC-2998 colon, with HOP-92 NSCLC, in the assay with IGROV1 ovarian and in the assay with KM12 colon was above 100 µM in each case. In addition, the TGI with NCI/ADR-RES ovarian, in the assay on OVCAR-8 ovarian, in the assay with SF-268 CNS and in the assay on UO-31 renal was above 100 µM in each case.
